Measured values reported in PMC5896380, “Selective imaging of cathepsin L in breast cancer by fluorescent activity-based probes” (Chemical Science, 2018).
Non-standard residues stand in square brackets, D forms with d. *: point of attachment. Phe(3-Cl) = N[C@@H](Cc1cccc(Cl)c1)C(=O)O; ACC = NC(=O)Cc1cc(=O)oc2cc(N*)ccc12; hArg = N=C(N)NCCCC[C@H](N)C(=O)O; ClZ = O=C(OCc1ccccc1Cl)*; Orn = NCCC[C@H](N)C(=O)O; Dap = NC[C@H](N)C(=O)O; Mob = COc1ccc(C*)cc1; Meb = Cc1ccc(C*)cc1; OBn = c1ccc(CO*)cc1; Bn = c1ccc(C*)cc1

Target: T1, cathepsin L (Homo sapiens, UniProt P07711)
T1 construct: made in house
T1 sequence (P07711 114-333): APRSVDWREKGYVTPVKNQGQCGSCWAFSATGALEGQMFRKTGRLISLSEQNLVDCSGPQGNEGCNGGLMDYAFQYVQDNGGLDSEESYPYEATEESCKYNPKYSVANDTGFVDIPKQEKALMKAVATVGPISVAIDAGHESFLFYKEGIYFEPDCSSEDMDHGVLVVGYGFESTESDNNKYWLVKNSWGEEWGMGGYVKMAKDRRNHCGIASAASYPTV
Assay: Kinetic parameters of ACC substrates with cathepsin L
Format: biochemical
Details: for Km: read-out: KM
Procedure: All kinetic experiments were performed using fMax (Molecular Devices) and CLARIOStar (BMG LABTECH) spectrofluorimeters operating in kinetic mode using 96-well plates. ACC-labeled substrates were screened using 355 nm and 460 nm wavelengths (excitation and emission, respectively). […] The buffer was prepared at room temperature and the enzyme kinetic studies were performed at 37 °C.
Classic substrate velocity plots were analyzed according to Michaelis–Menten kinetics and a detailed protocol for the determination of kinetic parameters for ACC-tagged substrates is found elsewhere.[56] […] Experiments were repeated at least three times and results are presented as an average. The SDs were below 15%.

[1] = Fig. 4B, ACC substrates, 100 mM sodium acetate, 100 mM NaCl, 10 mM DTT, 1 mM EDTA, pH 5.5, 37 °C, cathepsin L 0.1–0.5 nM, average of at least three, SD below 15%
[2] = Table S2, cathepsin L, four independent experiments, S.D. below 15%

| Substance | kcat/KM [1] | kcat [2] [s⁻¹] | kcat/KM [2] | Km [2] [µM] | hydrolysis by cathepsin L relative to Ac-His-Arg-Phe-Arg-ACC substrate (kcat/KM compared with reference substrate) [times] |
| --- | --- | --- | --- | --- | --- |
| Ac-[Dap]R[Phe(3-Cl)]R-{ACC} (SMILES CC(=O)N[C@@H](CN)C(=O)N[C@@H](CCCNC(=N)N)C(=O)N[C@@H](Cc1cccc(Cl)c1)C(=O)N[C@@H](CCCNC(=N)N)C(=O)Nc1ccc2c(CC(N)=O)cc(=O)oc2c1) | 25,400,000 M^-1s^-1 | – | – | – | – |
| Ac-[Dap][Orn][Phe(3-Cl)]C(Bn)-{ACC} (SMILES CC(=O)N[C@@H](CN)C(=O)N[C@@H](CCCN)C(=O)N[C@@H](Cc1cccc(Cl)c1)C(=O)N[C@@H](CSCc1ccccc1)C(=O)Nc1ccc2c(CC(N)=O)cc(=O)oc2c1) | 45,420,000 M^-1s^-1 | 191 | 45,420,000 M-1s-1 | 4.28 | – |
| Ac-[Dap][Orn][Phe(3-Cl)]C(Meb)-{ACC} (SMILES CC(=O)N[C@@H](CN)C(=O)N[C@@H](CCCN)C(=O)N[C@@H](Cc1cccc(Cl)c1)C(=O)N[C@@H](CSCc1ccc(C)cc1)C(=O)Nc1ccc2c(CC(N)=O)cc(=O)oc2c1) | 41,660,000 M^-1s^-1 | 207 | – | 4.99 | – |
| Ac-[Dap][Orn][Phe(3-Cl)]C(Mob)-{ACC} (SMILES COc1ccc(CSC[C@H](NC(=O)[C@H](Cc2cccc(Cl)c2)NC(=O)[C@H](CCCN)NC(=O)[C@H](CN)NC(C)=O)C(=O)Nc2ccc3c(CC(N)=O)cc(=O)oc3c2)cc1) | 48,350,000 M^-1s^-1 | 193 | – | 4.15 | ~4 |
| Ac-[Dap][Orn][Phe(3-Cl)]E(OBn)-{ACC} (SMILES CC(=O)N[C@@H](CN)C(=O)N[C@@H](CCCN)C(=O)N[C@@H](Cc1cccc(Cl)c1)C(=O)N[C@@H](CCC(=O)OCc1ccccc1)C(=O)Nc1ccc2c(CC(N)=O)cc(=O)oc2c1) | 34,270,000 M^-1s^-1 | 188 | 34,270,000 M-1s-1 | 5.67 | – |
| Ac-[Dap][Orn][Phe(3-Cl)]K(ClZ)-{ACC} (SMILES CC(=O)N[C@@H](CN)C(=O)N[C@@H](CCCN)C(=O)N[C@@H](Cc1cccc(Cl)c1)C(=O)N[C@@H](CCCCNC(=O)OCc1ccccc1Cl)C(=O)Nc1ccc2c(CC(N)=O)cc(=O)oc2c1) | 29,280,000 M^-1s^-1 | 86.7 | 29,280,000 M-1s-1 | 2.98 | – |
| Ac-[Dap][Orn][Phe(3-Cl)]K-{ACC} (SMILES CC(=O)N[C@@H](CN)C(=O)N[C@@H](CCCN)C(=O)N[C@@H](Cc1cccc(Cl)c1)C(=O)N[C@@H](CCCCN)C(=O)Nc1ccc2c(CC(N)=O)cc(=O)oc2c1) | 19,810,000 M^-1s^-1 | 141 | 19,810,000 M-1s-1 | 7.11 | – |
| Ac-[Dap][Orn][Phe(3-Cl)]L-{ACC} (SMILES CC(=O)N[C@@H](CN)C(=O)N[C@@H](CCCN)C(=O)N[C@@H](Cc1cccc(Cl)c1)C(=O)N[C@@H](CC(C)C)C(=O)Nc1ccc2c(CC(N)=O)cc(=O)oc2c1) | 11,290,000 M^-1s^-1 | 41.8 | 11,290,000 M-1s-1 | 3.7 | – |
| Ac-[Dap][Orn][Phe(3-Cl)]R-{ACC} (SMILES CC(=O)N[C@@H](CN)C(=O)N[C@@H](CCCN)C(=O)N[C@@H](Cc1cccc(Cl)c1)C(=O)N[C@@H](CCCNC(=N)N)C(=O)Nc1ccc2c(CC(N)=O)cc(=O)oc2c1) | 36,310,000 M^-1s^-1 | 195 | 36,310,000 M-1s-1 | 5.38 | – |
| Ac-[Dap][Orn][Phe(3-Cl)][hArg]-{ACC} (SMILES CC(=O)N[C@@H](CN)C(=O)N[C@@H](CCCN)C(=O)N[C@@H](Cc1cccc(Cl)c1)C(=O)N[C@@H](CCCCNC(=N)N)C(=O)Nc1ccc2c(CC(N)=O)cc(=O)oc2c1) | 30,500,000 M^-1s^-1 | 123 | 30,500,000 M-1s-1 | 4.21 | – |
